Source: patent US10047031B2, “Organic compounds” (GIVAUDAN SA, priority 2014, dated 2018)

Assays:
rat hepatocytes = assay: in vitro metabolism in rat hepatocytes in suspension (GC-MS); type: in vitro ADME; conditions: incubated with hepatocytes isolated from rats, 'substantially no' = below limit of detection, i.e. <1%
Description: Decrease of Lilial™ and the compound released by the precursor of the present invention, and formation of the corresponding benzoic acid derivative may be analysed by GC-MS.
By “substantially no benzoic acid derivative” is meant that the concentration of said derivative is below the limit of detection, i.e. <1%. As such, the precursor releasing the compound of formula (I) provides perfumers with an eminently suitable surrogate for the valuable yet problematic Lilial™.

guinea-pigs = conditions: guinea pig, in vivo; cited from earlier work
mice = conditions: mouse, in vivo; cited from earlier work
primates = conditions: cited from earlier work

Structure (SMILES) | enzymatic degradation to / formation of the corresponding benzoic acid derivative (rat hepatocytes) | enzymatic degradation to / formation of the corresponding benzoic acid derivative (rat hepatocytes; listed as compound released by the precursor of the present invention) | effects (reproductive toxicity) (guinea-pigs) | effects (reproductive toxicity) (mice) | effects (reproductive toxicity) (primates)
Cc1cc(CC(C)C)ccc1CCC=O [compound of formula (I), 3-(4-isobutyl-2-methylphenyl)propanal] | no, or substantially no | not susceptible |  |  | 
CC(C=O)Cc1ccc(C(C)(C)C)cc1 (centres unmarked) [Lilial™, 3-(4-tert-butylphenyl)-2-methylpropanal] |  |  | No effects | No effects | No effects
